Source: patent US20190032014A1, “USING MICROBIOTA METABOLITES TO DIFFERENTIATE NAÏVE T-CELLS AND RELATED METHODS TO INDUCE OR PREVENT INFLAMMATORY CONDITIONS” (THE TEXAS A&M UNIVERSITY SYSTEM, priority 2016, published 2019)
“Also recorded” adds a separate entry of the source.

Assays:
[1] = test system: effector T cell proliferation; test: Suppression assay of effector T cell proliferation by iTregs; format: cell-based, mice
Protocol: (§1) FOXP3-EGFP naïve CD4+ CD25− cells cultured in αCD3/28 coated wells with Treg-skew cytokines and indole or solvent control were cultured for 72 hours, and assessed for FoxP3 expression and proliferation by CFSE dilution.
Specifically, FIG. 13 graphically illustrates the results of the suppression assay, showing the suppression of T-cell proliferation as determined by IL-2 production (an essential marker of T-cell proliferation) with increased proportions of Tregs added to co-cultures with effector T-cells..
After 72 h, cells are stimulated with PMA/ionomycin (10 ng/mL PMA, […] ionomycin). For flow cytometry, cells are treated with Golgi plug (Brefeldin A) for four hours and then stained with fluorophore-conjugated mAbs against both inflammatory (e.g., IL-6, IL-12, IL-17, TNF-α) and anti-inflammatory (e.g., IL-10, IL-35, TGF-β) cytokines. Samples are stained with the maximum number of antibodies. Furthermore, expression of established Treg markers (FOXP3, CD25hi, CD103, CD62L, GITR, PD-1, CD152, CD127, ICOS, Granzyme-B) [Vignali, D. A., L. W. Collison, and C. J. Workman, Nat Rev Immunol 8(7):523-32. (2008); Chen, J., et al., Int Immunopharmacol 11(5):610-7 (2011)] and markers of an inflammatory phenotype (RORγT) can be analyzed. […] The effect of the TDMMs on suppression of effector T cell proliferation is determined as described for FIG. 4. […]

CD4+ CD25− naïve T cells = test: In vitro naïve T cell differentiation, Treg-skew (FoxP3+ by FACS); format: cell-based, C57BL/6 mice; details: for effect on % FoxP3+ cells / Treg differentiation: vs DMF control; for % FoxP3+ cells: indole less than 500 μM
Protocol: Mesenteric lymph node (MLN) and spleen are harvested from WT or FOXP3^EGFP C57Bl/6 mice and homogenized. Spleen tissue is subjected to red blood cell lysis and pooled into a single cell suspension for counting. Counted cells are resuspended in sterile FACS buffer (PBS++ with 05% bovine serum albumin) at a concentration of ˜5×10^7 cells/mL and stained for 45 minutes at 4° C. with anti-CD4 and anti-CD25 fluorophore-conjugated monoclonal antibodies (mAb). After two washes, the stained cells are resuspended at ˜6×10^6 cells/mL in FACS buffer and immediately sorted. […] TDMMs are solubilized in DMF at 2 M and used at desired concentrations (e.g., 0.01, 0.1, 0.5 and 1.0 mM) in growth media; DMF in growth media (0.05%) is used as a solvent control.
The % of Treg or Th17 cells are determined based on the expression of signature transcription factors, FoxP3 and Rorγt, respectively. In addition, signature cytokine markers for Treg and Th17, TGFβ or IL-17, respectively, among others are measured using intracellular cytokine staining. Since it is possible that a cell could be positive for FoxP3 and still express some IL-17, the final % of Tregs are determined as the cell population that is FoxP3+TGFβ+ Rorγt-IL-17−. Similarly, the % of Th17 cells are determined as the population that is FoxP3-TGFβ− Rorγt+IL-17+.
CD4+ CD25− T cells were isolated to high purity (>98%) from the pooled spleen and mesenteric lymph nodes of C57BL/6 mice (Jackson Labs) with a BD FACS Aria II flow cytometer. Fc Block (BD), αCD4-efluor450 (eBioscience clone GK1.5) and αCD25-PECy7 (eBioscience clone PC61.5) antibodies were used for staining before sorting.
For Th1-skew: 5 ng/mL IL-12 (Peprotech cat. #210-12) and 10 µg/mL αIL-4 (BioXCell clone 11B11) were added to culture. For Th2-skew: 10 ng/mL IL-4 (Peprotech) and 10 μg/mL αIFN-γ (BioXCell clone R4-6A2) were added to culture. For Th17-skew: 10 ng/mL IL-6 (Peprotech), 5 ng/mL IL-23 (R&D), 0.5 ng/mL TGF-β (Peprotech), 10 μg/mL al-4 (BioXCell clone 11B11), and 10 μg/mL αIFN-γ (BioXCell clone R4-6A2) were added to culture. For Treg-skew: 2 ng/mL TGF-β (Peprotech) and 100 U/mL IL-2 (Roche) were added to culture. Sodium Propionate, sodium acetate, sodium butyrate and sodium chloride (all from Sigma-Aldrich) were solubilized in media and added to culture. Indole was solubilized in DMF (both from Sigma-Aldrich) at 2M and brought to final concentration in media. MGCD0103 (Selleck Chemicals) was solubilized in DMF at 2 mM and brought to final concentration in media. A 0.05% DMF solvent control was used for all experiments.

iTregs = test: iTreg cytokine expression (TGF-β, IL-10); format: cell-based, mice
Protocol: as §1
The iTregs were next assessed for cytokine production when conditioned with indole or butyrate.
For flow cytometry, cells are treated with Golgi plug (Brefeldin A) for four hours and then stained with fluorophore-conjugated mAbs against both inflammatory (e.g., IL-6, IL-12, IL-17, TNF-α) and anti-inflammatory (e.g., IL-10, IL-35, TGF-β) cytokines. Samples are stained with the maximum number of antibodies. Furthermore, expression of established Treg markers (FOXP3, CD25hi, CD103, CD62L, GITR, PD-1, CD152, CD127, ICOS, Granzyme-B) [Vignali, D. A., L. W. Collison, and C. J. Workman, Nat Rev Immunol 8(7):523-32. (2008); Chen, J., et al., Int Immunopharmacol 11(5):610-7 (2011)] and markers of an inflammatory phenotype (RORγT) can be analyzed. […] For all conditions, Tregs generated without the TDMM can be used as the control. The effect of the TDMMs on suppression of effector T cell proliferation is determined as described for FIG. 4. Such assays permit determination of whether the iTregs generated with different TDMMs are functional as natural Tregs.

For `c1ccc2[nH]ccc2c1` [Indole, indole], the “suppression of effector T cell proliferation” value ([1]; indole-conditioned Tregs, 72-hour suppression assay, vs control iTregs (DMF)) was “suppress effector T cell proliferation function”, the “suppression of T-cell proliferation (IL-2 production)” value ([1]; indole-induced iTregs vs nTregs or butyrate-induced iTregs) was “stronger suppressive characteristics, than nTregs or iTregs induced by butyrate” and the “increase in the % of FOXP3+ cells compared to cells exposed to 1 mM indole” value (CD4+ CD25− naïve T cells; 750 μM indole, absence of IL-4) was 4%. The “proportion of FoxP3+ iTregs” value (CD4+ CD25− naïve T cells; 1 mM indole, Treg skewing conditions, solvent control 25%) was 68.8%, the “% FoxP3+ cells with reduced / titrated TGF-β” value (CD4+ CD25− naïve T cells; TGF-β below threshold for Treg induction, low and high titrations) was “Treg induction occurs notwithstanding low levels of TGF-β; also recorded: increased the % FoxP3+ cells” and the “FoxP3 induction under Th0 conditions” value (CD4+ CD25− naïve T cells; Th0 conditions (no TGF-β)) was “induced FoxP3 even under Th0 conditions”. The “% FoxP3+ cells, indole, butyrate and 5-HI all combined” value (CD4+ CD25− naïve T cells; Treg skewing conditions) was “the % FoxP3+ increased again”, the “% FoxP3+ cells, indole combined with 5-HI” value (CD4+ CD25− naïve T cells; Treg skewing conditions, vs 5-HI alone) was “negated the inhibitory effects of 5-HI on % FoxP3+ cells” and the “effect on % FoxP3+ cells / Treg differentiation” value (CD4+ CD25− naïve T cells; Treg skewing conditions) was “significantly increased the % of FoxP3+ cells”. For the same compound, the “effect on % FoxP3+ cells / Treg differentiation” value (CD4+ CD25− naïve T cells; Treg skewing conditions, listed as indole) was “dose-dependent; also recorded: strong pro-Treg response; also recorded: significantly increased the % FoxP3+ cells”, the “% FoxP3+ cells” value (CD4+ CD25− naïve T cells; IL-4 6 ng/mL) was 25% and the “% FoxP3+ cells” value (CD4+ CD25− naïve T cells; IL-4 10 ng/mL) was 28%. For the same compound, the “per-cell expression of FOXP3 (GFP)” value (CD4+ CD25− naïve T cells; indole-induced iTregs, pre- and post-sort, 72 hours) was “higher per-cell expression of FOXP3 (GFP) both pre- and post-sort”, the “expansion of Tregs (Foxp3+ %) at standard TGF-β dose” value (CD4+ CD25− naïve T cells; standard TGF-β dose) was “doubles” and the “level of FoxP3 expression (MFI)” value (CD4+ CD25− naïve T cells; vs solvent control) was “significantly increased”. The TGF-β secretion (iTregs; indole-conditioned Tregs vs control iTregs (DMF), overnight re-stimulation with αCD3) was “secrete more TGF-β than conventional control iTregs (DMF)”, the IL-10 expression (iTregs; indole-conditioned iTregs) was “inhibition of IL-10 expression” and the TGF-β expression (iTregs; indole-conditioned vs butyrate-conditioned iTregs) was “increased TGF-β expression over butyrate-conditioned iTregs”.
